A value given as a limit tells only on which side of the number the result lay.

The assay deals with Nrf2. Kind of assay: Evaluation of Nrf2 activation ability (Nrf2d-LacZ / Keap1 HEK293 reporter, Beta-Glo luminescence). It is filed as cell-based, human. An outline of the steps: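 HEK293 cells stably expressing a human Nrf2 degron–LacZ fusion plus human Keap1 were exposed to compound for 3 h at 37° C. Reporter β-galactosidase was read by Beta-Glo luminescence after 1 h at RT. Activation is given as % of the signal with 100 nM CDDO-Im.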

The mark [1] stands for this setting: rated A/B/C, Pharmacological Test Example 1.
[2] abbreviates: Pharmacological Test Example 1, rated A/B/C.

Broadly, the EC50 is the concentration that produces a half-maximal response. The compound `[O-][s+]1nc(O)cc1-n1ncc2cc(-c3cncnc3)ccc21` (centres unmarked) [Example 41] registered an EC50 under setting [1] of 1000 to 5000 nM.

Compound `COc1cc(-c2ccnc(N3CCCC3)c2)c2cnn(-c3cc(O)n[s+]3[O-])c2c1` (centres unmarked) [Example 181] came in with an EC50 under setting [1] of 1000 to 5000 nM.

The compound `[O-][s+]1nc(O)cc1-n1cc(CCc2ccc(Cl)nc2)cn1` (centres unmarked) [Example 452] came in with an EC50 under setting [2] of 1000 to 5000 nM.

As to `COc1cc(-c2cccnc2)c2cnn(-c3cc(O)n[s+]3[O-])c2c1` (centres unmarked) [Example 166], under setting [1], the EC50 fell in the range of 1000 to 5000 nM.

`CC(C)(C)OC(=O)N1CCc2cn(-c3cc(O)n[s+]3[O-])nc2CC1` (centres unmarked) [Example 244] gave an EC50 under setting [1] of 1000 to 5000 nM.

The compound `[O-][s+]1nc(O)cc1-n1cc(-c2ccc3ccncc3c2)cn1` (centres unmarked) [Example 351] gave an EC50 under setting [2] of 1000 to 5000 nM.

Turning to `CN1CCCOc2cc(-c3ccc4c(cnn4-c4cc(O)n[s+]4[O-])c3)cnc21` (centres unmarked) [Example 209], under setting [1], the EC50 is less than 1000 nM.

`[2H]c1cccc(-c2ccc3c(cnn3-c3cc(O)n[s+]3[O-])c2)n1` (centres unmarked) [Example 82] yielded an EC50 under setting [1] of less than 1000 nM.

`[O-][s+]1nc(O)cc1-n1cc(-c2ccc3cccnc3c2)cn1` (centres unmarked) [Example 357] returned an EC50 under setting [2] of less than 1000 nM.

Regarding `CN1C(=O)C(C)(C)Oc2cc(-c3ccc4c(cnn4-c4cc(O)n[s+]4[O-])c3)cnc21` (centres unmarked) [Example 187], the EC50 under setting [1] is less than 1000 nM.

For the compound `O=C(Cc1ccc(-c2cnn(-c3cc(O)n[s+]3[O-])c2)cc1)N1CCc2ccccc21` (centres unmarked) [Example 373], the EC50 under setting [2] was 5000 to 10000 nM.

Take `[O-][s+]1nc(O)cc1-n1cc(-c2ccccn2)cn1` (centres unmarked) [Example 386]: the EC50 under setting [2] is 1000 to 5000 nM.

Consider `Cn1c(=O)n(-c2cnn(-c3cc(O)n[s+]3[O-])c2)c2ccccc21` (centres unmarked) [Example 419], for which the concentration giving a half-maximal response (EC50) under setting [2] is 1000 to 5000 nM.

For `Cc1ccc2cnn(-c3cc(O)n[s+]3[O-])c2c1` (centres unmarked) [Example 32], under setting [1], the EC50 was 1000 to 5000 nM.

`COc1ncccc1-c1ccc(-c2cnn(-c3cc(O)n[s+]3[O-])c2)cn1` (centres unmarked) [Example 447]: the EC50 under setting [2] is less than 1000 nM.

`[O-][s+]1nc(O)cc1-n1cc2c(n1)CN(Cc1ccccc1)C2` (single isomer, unassigned) [Example 255] had an EC50 under setting [1] of 1000 to 5000 nM.

Under setting [2], `COC(=O)C1(c2ccc(-c3cnn(-c4cc(O)n[s+]4[O-])c3)cc2)CC1` (centres unmarked) [Example 324] yielded an EC50 of less than 1000 nM.

`CC(C)(C)OC(=O)N1CCc2c(c(I)nn2-c2cc(O)n[s+]2[O-])C1` (centres unmarked) [Example 251] came in with an EC50 under setting [1] of 5000 to 10000 nM.

As to `CN1CCOc2cc(-c3ccc4c(cnn4-c4cc(O)n[s+]4[O-])c3)ncc21` (centres unmarked) [Example 222], the EC50 under setting [1] is less than 1000 nM.

Under setting [1], `[O-][s+]1nc(O)cc1-n1ncc2c(Cl)cccc21` (centres unmarked) [Example 29] gave an EC50 of 1000 to 5000 nM.

The compound `Cc1cccc2cnn(-c3cc(O)n[s+]3[O-])c12` (centres unmarked) [Example 34] showed an EC50 under setting [1] of 1000 to 5000 nM.

Regarding `[O-][s+]1nc(O)cc1-n1ncc2cc(Br)ccc21` (centres unmarked) [Example 2, 5-(5-bromoindazol-1-yl)-1-oxo-1,2-thiazol-3-ol], the EC50 under setting [1] was less than 1000 nM.

In turn, `[O-][s+]1nc(O)cc1-n1ncc2ccc(C3=CCC(F)(F)CC3)cc21` (centres unmarked) [Example 102] gave an EC50 under setting [1] of 1000 to 5000 nM.

Under setting [2], `COc1cc(-c2ccc(-c3cnn(-c4cc(O)n[s+]4[O-])c3)cn2)ccn1` (centres unmarked) [Example 446] came in with an EC50 of less than 1000 nM.

In turn, `Nc1ccc(-c2ccc3c(cnn3-c3cc(O)n[s+]3[O-])c2)cn1` (centres unmarked) [Example 45] had an EC50 under setting [1] of 1000 to 5000 nM.

Under setting [1], `CN1CCc2cc(-c3ccc4c(cnn4-c4cc(O)n[s+]4[O-])c3)cnc21` (centres unmarked) [Example 158] displayed an EC50 of less than 1000 nM.

In turn, `COc1cc(-c2cccnc2)cc2c1cnn2-c1cc(O)n[s+]1[O-]` (centres unmarked) [Example 199] yielded an EC50 under setting [1] of 1000 to 5000 nM.

The compound `COc1cncc(-c2cnn(-c3cc(O)n[s+]3[O-])c2)c1` (centres unmarked) [Example 398] came in with an EC50 under setting [2] of 1000 to 5000 nM.

`[O-][s+]1nc(O)cc1-n1cc(-c2cnc(C3CC3)cn2)cn1` (centres unmarked) [Example 414] yielded a half-maximal effective concentration (EC50) under setting [2] of less than 1000 nM.
